pIC50: −log10 of the molar value. Values joined by “and” are separate entries in the source; they are usually repeats but may differ in a detail not shown here. Identical values can stand only once. One block for each compound: values may come before it.
Tests used:
ASIC1a = target: T1, ASIC1a (Homo sapiens, UniProt P78348); assay: Calcium-imaging (calcium mobilization, FLIPR) assay in ASIC1a expressing HEK293 cells; format: cell-based; set-up: host or cells: HEK293; conditions: n=3-7, compounds not radiolabelled
T1 sequence (P78348 1-528): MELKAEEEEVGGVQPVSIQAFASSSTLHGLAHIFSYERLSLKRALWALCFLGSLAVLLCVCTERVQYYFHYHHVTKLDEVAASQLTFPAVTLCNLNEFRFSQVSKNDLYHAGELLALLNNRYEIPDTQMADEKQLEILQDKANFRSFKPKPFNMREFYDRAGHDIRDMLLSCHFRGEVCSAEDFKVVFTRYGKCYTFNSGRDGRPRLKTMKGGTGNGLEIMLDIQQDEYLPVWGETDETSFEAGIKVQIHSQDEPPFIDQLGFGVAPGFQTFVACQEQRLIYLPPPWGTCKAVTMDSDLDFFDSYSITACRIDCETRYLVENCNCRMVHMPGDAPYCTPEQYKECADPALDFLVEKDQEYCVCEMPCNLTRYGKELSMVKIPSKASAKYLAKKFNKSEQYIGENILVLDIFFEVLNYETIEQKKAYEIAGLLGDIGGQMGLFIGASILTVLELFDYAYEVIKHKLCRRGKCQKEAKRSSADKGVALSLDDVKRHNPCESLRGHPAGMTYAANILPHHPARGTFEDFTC
Experimental: ASIC1a expressing HEK293 cells are grown in culture medium (DMEM with 10% FBS), in polystyrene culture flasks ([…]) at 37° C. in a humidified atmosphere of 5% CO2. Confluency of cells should be 80-90% on day of plating. Cells are rinsed with 10 ml of PBS and re-suspended by addition of culture medium and trituration with a 25 ml pipette.
The cells are seeded at a density of approximately 1×10^6 cells/ml (100 μl/well) in black-walled, clear bottom, 96-well plates pre-treated with 10 mg/l poly-D-lysin (75 μl/well for ≧30 min). Plated cells were allowed to proliferate for 24 h before loading with dye.
Fluo-4/AM (1 mg, Molecular Probes) is dissolved in 912 μl DMSO. The Fluo-4/AM stock solution (1 mM) is diluted with culture medium to a final concentration of 2 μM (loading solution).
The culture medium is aspirated from the wells, and 50 μl of the Fluo-4/AM loading solution is added to each well. The cells are incubated at 37° C. for 30 min.
After the loading period, the loading solution is aspirated and the cells are washed twice with 100 μl modified Assay Buffer (145 mM NaCl, 5 mM KCl, 5 mM CaCl2, 1 mM MgCl2, 10 mM HEPES, pH 7.4) to remove extracellular dye. Following the second wash, 100 μl modified Assay Buffer is added to each well and the fluorescence is measured in FLIPR™ or FlexStation™ (Molecular Devices, USA), or any other suitable equipment known to the skilled in the art.
Temperature: Room temperature (20-22° C.)
First addition: 50 μl test solution at a rate of 30 μl/sec and a starting height of […]
Second addition: 50 μl MES solution (20 mM, 5 mM final concentration) at a rate of 35 μl/sec and a starting height of 150 μl.
Reading intervals: pre-incubation—10 sec×7 and 3 sec×3 antagonist phase—3 sec×17 and 10 sec×12
Addition plates (compound test plate and MES plate) are placed on the right and left positions in the FLIPR tray, respectively. Cell plates are placed in the middle position and the ASIC1a program is effectuated. FLIPR will then take the appropriate measurements in accordance with the interval settings above. Fluorescence obtained after stimulation is corrected for the mean basal fluorescence (in modified Assay Buffer).
The MES-induced peak calcium response, in the presence of test substance, is expressed relatively to the MES response alone. Test substances that block the MES-induced calcium response are re-tested in triplicates. Confirmed hits are picked for further characterization by performing full dose-response curves to determine potency of each hit compound as represented by the IC50 values (i.e., the concentration of the test substance which inhibits 50% of the MES-induced calcium response).
It is noted that the compounds below are not radiolabelled.

[1] = system: formalin-induced pain in Sprague-Dawley rats; assay: Formalin model of acute tonic pain; format: in vivo, rat; conditions: rat, in vivo
Experimental: Male Sprague-Dawley rats are housed together in groups of three animals under standard conditions with unrestricted access to food and water. All experiments are conducted according to the ethical guidelines for investigations of experimental pain in conscious animals (Zimmerman, 1983)
Assessment of formalin-induced flinching behavior in normal, uninjured rats (body weight 150-180 g) was made with the use of an Automated Nociception Analyser (University of California, San Diego, USA). Briefly, this involved placing a small C-shaped metal band (10 mm wide×27 mm long) on the hindpaw of the rat to be tested. The rats (four rats were included in each testing session) were then placed in a cylindrical plexiglass observation chamber (diameter 30.5 cm and height 15 cm) for 20 min for adaptation purposes prior to being administered drug or vehicle according to the experimental paradigm being followed. After adaptation, individual rats were then gently restrained and formalin (5% in saline, 50 μl, s.c.) was injected into the plantar surface of the hindpaw using a 27 G needle. Rats were then returned to their separate observation chambers, each of which were in turn situated upon an enclosed detection device consisting of two electromagnetic coils designed to produce an electromagnetic field in which movement of the metal band could be detected. The analogue signal was then digitised and a software algorithm (LabView) applied to enable discrimination of flinching behaviour from other paw movements. A sampling interval of 1 min was used and on the basis of the resulting response patterns 5 phases of nociceptive behaviour were identified and scored: first phase (P1; 0-5 min), interphase (Int; 6-15 min), second phase (P2; […]), phase 2A (P2A; 16-40 min) and phase 2B (P2B; 41-60 min).
Nociceptive behavior was also determined manually every 5 min by measuring the amount of time spent in each of four behavioral categories: 0, treatment of the injected hindpaw is indistinguishable from that of the contralateral paw; 1, the injected paw has little or no weight placed on it; 2, the injected paw is elevated and is not in contact with any surface; 3, the injected paw is licked, bitten, or shaken. A weighted nociceptive score, ranging from 0 to 3 was calculated by multiplying the time spent in each category by the category weight, summing these products, and dividing by the total time for each 5 min block of time. (Coderre et al., Pain 1993; 54: 43). On the basis of the resulting response patterns, 2 phases of nociceptive behavior were identified and scored: first phase (P1; 0-5 min), interphase (Int; 6-15 min), second phase (P2; […]), phase 2A (P2A; 16-40 min) and phase 2B (P2B; 41-60 min).
Statistical analysis was performed using Prism™ 4.01 software package (GraphPad, San Diego, Calif., USA). The difference in response levels between treatment groups and control vehicle group was analyzed using an ANOVA followed by Bonferroni's method for post-hoc pair-wise comparisons. A p value<0.05 was considered to be significant
The effect of Compound A on pain induced by intraplantar formalin injection was investigated. Compound A was administered i.p. 30 min. before the formalin. Compound A was able to reduce the total pain score behavior (flinching, licking, biting) in phase 1 and 2 of the formalin test.

[2] = Liver microsomes stability and metabolite identification (LC-MS), rat; format: in vitro ADME
From the text: (§1) The objective of this study is to analyze in vitro samples of Compound A and Compound B from rat and human microsomes using liquid chromatography quadrupole ion trap mass spectrometry and identify the nature of the metabolite(s) for each species.
(§2) The HPLC system consisted of a Thermo Surveror autosampler and a Thermo Surveyor MS pump (San Jose, Calif., USA). The LC-MS/MS system used was a Thermo LCQ Advantage (San Jose, Calif., USA). Data was acquired on a Dell Optiplex desktop computer (Round Rock, Tex., USA) equipped with operation system Windows XP professional. Data acquisition and analysis were performed using XCalibur 1.4 (San Jose, Calif., USA).
(§3) After the incubation period of the liver microsomes, the reaction was stopped with the addition of acetonitrile and frozen for transport. Before analysis, the samples were thawed at room temperature. They were vortexed vigorously and centrifuged at approximately 12000 g for 10 minutes. The supernatant was transferred into an injection vial for analysis.
(§4) A gradient mobile phase was used with a Thermo Phenyl 100×2 mm column with particle size of 5 μm. The initial mobile phase condition consisted of methanol and 0.1% formic acid solution at a ratio of 20:80, respectively. From 0 to 2 minutes, the ratio was maintained at 20:80. From 2 to 10 minutes, a linear gradient was applied and a ratio of 90:10 was maintained from 10 to 12 minutes. […] The flow rate was fixed at 0.25 mL/min.
(§5) The mass spectrometer was interfaced with the HPLC system using a pneumatic assisted electrospray ion source. The sheath gas was set to 15 units and the ESI electrode was set to 4000 V (positive mode). The capillary temperature was set at 300° C., and the capillary voltage was set to 13 V. The mass spectrometer was operating in full scan MS mode using one segment analysis (200-800).

[3] = Liver microsomes stability and metabolite identification (LC-MS), dog; format: in vitro ADME
[4] = Liver microsomes stability and metabolite identification (LC-MS), human; format: in vitro ADME
From the text: as §1, §2, §3, §4, §5

[5] = Plasma composition analysis, parent compound and metabolites by MS; format: in vivo; conditions: rat plasma; for Plasma Component: P-OH: Compound G: detected but not confirmed (footnote a)
Experimental: Rats receive compounds (5 mg/kg) dissolved in HPβCD 15%, dextrose 2.5%, pH 5 by intravenous (i.v). route or (25-30 mg/kg) dissolved in HPβCD 15%, dextrose 2.5%, […] (s.c.) route or (50-150 mg/kg) dissolved in HPβCD 15%, dextrose 2.5%, pH 5 by oral (p.o.) route. After the treatment, approximately 100 μl of blood sample is collected and the accurate bleeding time is recorded for each sample. Each blood sample is collected into Microvette blood collection tube containing anticoagulant lithium heparin. Following collection, the samples are centrifuged at […] for 15 minutes (to avoid haemolysis) and the plasma obtained from each is recovered and stored frozen (at −80° C.) pending analysis. Frozen samples are shipped on dry ice to quantify drug concentration within plasma after extraction procedure as previously described in Example 13.

[6] = rat microsomes 60 min (samples 8-10)
[7] = dog microsomes 60 min (samples 26-28)
[8] = human microsomes 60 min (samples 17-19)

pIC50 (ASIC1a): 6.00
Compound: COc1ccc(F)cc1-c1cc2c(c3c1CCN(C)C3)NC(=O)/C2=N/O [Compound A (minor Z isomer isolated), 5-(5-fluoro-2-methoxyphenyl)-6,7,8,9-tetrahydro-3-(hydroxyimino)-8-methyl-1H-pyrrolo[3,2-h]isoquinoline-2(3H)-one]

Total % metabolites ([2]; % peak area relative to parent at T0, 60 min incubation, rat microsomes): 12.8% | Compound B metabolite identification: m/z 342 [2, 6]: Yes | Compound B metabolite identification: m/z 356 [2, 6]: Yes | Compound B metabolite identification: m/z 370 (parent) [2, 6]: Yes | Compound B metabolite identification: m/z 386 [2, 6]: Yes | Calc. Conc. ([2]; rat microsomes, time 0 min): 4.95 µM | Calc. Conc. ([2]; rat microsomes, time 60 min): 0.90 µM and 0.92 µM and 0.97 µM | Total % metabolites ([3]; % peak area relative to parent at T0, 60 min incubation, dog microsomes): 4.93% | Compound B metabolite identification: m/z 342 [3, 7]: very weak | Compound B metabolite identification: m/z 356 [3, 7]: very weak | Compound B metabolite identification: m/z 370 (parent) [3, 7]: Yes | Compound B metabolite identification: m/z 386 [3, 7]: low | Calc. Conc. ([3]; dog microsomes, time 0 min): 4.44 µM and 4.56 µM | Calc. Conc. ([3]; dog microsomes, time 60 min): 4.33 µM and 4.38 µM and 4.17 µM | Total % metabolites ([4]; % peak area relative to parent at T0, 60 min incubation, human microsomes): 9.4% | Compound B metabolite identification: m/z 342 [4, 8]: Yes | Compound B metabolite identification: m/z 356 [4, 8]: low | Compound B metabolite identification: m/z 370 (parent) [4, 8]: Yes | Compound B metabolite identification: m/z 386 [4, 8]: Yes | Calc. Conc. ([4]; human microsomes, time 0 min): 4.39 µM and 5.04 µM | Calc. Conc. ([4]; human microsomes, time 60 min): 4.34 µM and 4.59 µM and 5.03 µM | Plasma Component: N-desMe or desEt ([5]; IV 5 mg/kg): Trace | Plasma Component: O-desMe ([5]; IV 5 mg/kg): Trace | Plasma Component: P—OH ([5]; IV 5 mg/kg): Trace | Plasma Component: N-desMe or desEt ([5]; PO 50 mg/kg): Trace | Plasma Component: O-desMe ([5]; PO 50 mg/kg): Trace | Plasma Component: P—OH ([5]; PO 50 mg/kg): Trace | Plasma Component: N-desMe or desEt ([5]; SC 25 mg/kg): Trace | Plasma Component: O-desMe ([5]; SC 25 mg/kg): Trace | Plasma Component: P—OH ([5]; SC 25 mg/kg): Trace
Compound: CCN1CCc2c(-c3cc(F)ccc3OC)cc3c(c2C1)NC(=O)/C3=N/O [Compound B, 5-(5-fluoro-2-methoxyphenyl)-6,7,8,9-tetrahydro-3-(hydroxyimino)-8-ethyl-1H-pyrrolo[3,2-h]isoquinoline-2(3H)-one]
acute tonic pain induced by formalin injection in the paw [1]: block

Plasma Component: N-desEt ([5]; IV 5 mg/kg): Small | Plasma Component: O-desMe ([5]; IV 5 mg/kg (table of Compounds G and J)): Small | Plasma Component: P-OH ([5]; IV 5 mg/kg): Small ^a | Plasma Component: N-desEt ([5]; PO 50 mg/kg): Small | Plasma Component: O-desMe ([5]; PO 50 mg/kg (table of Compounds G and J)): Small | Plasma Component: P-OH ([5]; PO 50 mg/kg): Small ^a | pIC50 (ASIC1a): 6.52
Compound: CCN1CCc2c(-c3cc(Cl)ccc3OC)cc3c(c2C1)NC(=O)/C3=N/O [Compound G, 5-(5-chloro-2-methoxyphenyl)-6,7,8,9-tetrahydro-3-(hydroxyimino)-8-ethyl-1H-pyrrolo[3,2-h]isoquinoline-2(3H)-one]

pIC50 (ASIC1a): 6.10
Compound: CN1CCc2c(-c3cc(F)ccc3O)cc3c(c2C1)NC(=O)C3=NO [Compound L, 5-(5-Fluoro-2-hydroxyphenyl)-3-(hydroxyimino)-8-methyl-6,7,8,9-tetrahydro-1H-pyrrolo[3,2-h]isoquinolin-2(3H)-one]

Source: patent publication US20090246134A1, “COMPOSITIONS AND METHODS FOR MODULATING GATED ION CHANNELS” (PainCeptor Pharma Corporation, priority 2007, published 2009)
